Source: patent US20100210722A1, “COMPOSITION FOR PREVENTING OR TREATING LIPID METABOLIC DISORDERS COMPRISING FUCOXANTHIN OR MARINE PLANT EXTRACT CONTAINING SAME” (AMICOGEN, INC., priority 2007, published 2010)
Marks after values point to notes of the source that are not given here.

Key:
Type in all cases: in vivo, C57BL/6N/CriBgi mice
[1] = system: glucose-6-phosphate dehydrogenase (G6PD); assay: G6PD activity in liver tissue; details: high fat diet, 6 weeks
Source text: (§1) Test diets were as follows: “normal diet group”=AIN-76 semisynthetic diet of Teklad (Madison, Wl, USA); “high fat diet group”=normal diet+10% of corn oil and 10% of lard; “test group I”=high fat diet+fucoxanthin extract of Example 1 (fucoxanthin content=0.05%); “test group II”=high fat diet+fucoxanthin extract of Example 1 (fucoxanthin content=0.2%); “test group III”=high fat diet+fucoxanthin extract of Example 2 (fucoxanthin content=0.05%); “test group IV”=high fat diet+fucoxanthin extract of Example 2 (fucoxanthin content=0.2%). The 6 diets (normal diet, high fat diet, and test I, II, III and IV) were given to the animals for 6 weeks. Diet intake was recorded every day, and body weight was measured once a week.
(§2) The supernatant was centrifuged again at 12,000×g for 15 minutes. Then, the supernatant was subjected to high-speed centrifuging (Beckman, Optima TLX-120, USA) at 100,000×g for 1 hour. Then, change of the activity of enzymes involved in the synthesis of fatty acid—fatty acid synthase (FAS), glucose-6-phosphate dehydrogenase (G6PD) and malic enzyme (ME)—was measured.
The G6PD enzyme is an enzyme that supplied reducing energy required for the synthesis of fatty acid. […] G6PD activity was measured at 340 nm by the degree of reduction of NADP^+ to NADPH by G6PD. […] G6PD activity was calculated as nmol of NADPH produced per 1 mg of protein in cell per minute.

[2] = Triglyceride and cholesterol level in liver tissue; details: high fat diet, 6 weeks
Procedure: Seventy (70) 4-week-old male C57BL/6N/CriBgi mice weighing 14 g were purchased from Orient, and reared in separate cages maintained at 24° C. and relative humidity of 55%, providing light from 08:00 until 20:00. The mice were accustomed while providing a pellet type diet for a week. The mice, which weighed 18.5-18.7 g, were grouped into seven groups by the randomized block design. Each group was given a different diet, as follows.
as §1

[3] = system: fatty acid synthase (FAS); assay: FAS activity in liver tissue; details: high fat diet, 6 weeks
Source text: as §1, §2
Specifically, FAS activity was determined as follows. […] After 10 minutes of reaction at 30° C., decrease of absorbance was measured. FAS activity was calculated as nmol of NADPH oxidized per 1 mg of protein in cell per minute.

ME mRNA = assay: Expression of mRNA for ME in adipose tissue (real-time PCR); details: normal diet = 1.00, GAPDH internal marker
Source text: as §1
5 mL of Trizol was added to 0.5 g of white adipose tissue. After pulverizing in liquid nitrogen using a mortar, the tissue was added to 1 mL of chloroform. […] The isolated RNA was diluted and absorbance was measured at 260 nm using a UV spectrometer. […]
Thus prepared cDNA was […] 10-fold, and primers for analyzing the expression of the respective genes (CPT, β-oxidation, FAS, ME and G6PD) were obtained from Genotech (Daejeon, Korea). […] Fluorescence signals were monitored for each cycle and threshold cycle (Cr) was analyzed for quantitative analysis of mRNA for the test groups (Applied Biosystems, SDS7000) (Livak, 2001). […]

β-oxidation = assay: Mitochondrial β-oxidation activity; details: mitochondrial fraction, high fat diet, 6 weeks
Source text: as §1
Mitochondrial β-oxidation activity was measured from the degree of reduction of NAD to NADH using palmitoyl-CoA. Specifically, 10 μL of mitochondrial fraction was added to a reaction solution containing 50 mM Tris-HCl (pH 8.0), 20 mM NAD, 0.33 M DTT, 1.5% BSA (1.5 g/100 mL), 2% Triton X-100 (2 g/100 mL), 10 mM CoA, 1 mM FAD, 100 mM KCN and 5 mM palmitoyl-CoA to initiate reaction. Then, change of absorbance was measured at 37° C. and 340 nm for 5 minutes. β-Oxidation activity was calculated as nmol of NADH produced per 1 mg of mitochondrial protein per minute.

[4] = system: peroxisome proliferator-activated receptor α (PPARα) mRNA; assay: Expression of mRNA for PPARα in liver tissue (real-time PCR)
[5] = fucoxanthin content 0.05% (Test I/III)
[6] = fucoxanthin content 0.2% (Test II/IV)

## CC(=O)O[C@H]1CC(C)(C)C(=C=C/C(C)=C/C=C/C(C)=C/C=C/C=C(C)/C=C/C=C(\C)C(=O)C[C@@]23O[C@]2(C)C[C@@H](O)CC3(C)C)[C@](C)(O)C1 [highly pure fucoxanthin, Fucoxanthin]
[1]; [5]
  G6PD activity: 51.53 ± 4.31^a mmol/min/mg protein
[1]; [6]
  G6PD activity: 50.51 ± 3.74^a mmol/min/mg protein
[2]; [5]
  Triglyceride level in liver tissue: 0.14 ± 0.01^c mmol/g liver
[2]; [6]
  Triglyceride level in liver tissue: 0.17 ± 0.02^b mmol/g liver
[3]; [5]
  FAS activity: 7.92 ± 0.59^a mmol/min/mg protein
[3]; [6]
  FAS activity: 9.49 ± 0.65^ab mmol/min/mg protein
ME mRNA; [5]
  Expression of mRNA, ME: 0.70 ± 0.07^ab
ME mRNA; [6]
  Expression of mRNA, ME: 0.52 ± 0.06^a
β-oxidation; [5]
  β-Oxidation activity: 9.46 ± 2.56^bc mmol/min/mg protein
β-oxidation; [6]
  β-Oxidation activity: 13.28 ± 3.79^c mmol/min/mg protein
[4]; normal diet = 1.00, fucoxanthin content 0.05% (Test I/III)
  Expression of mRNA, PPARα: 1.22 ± 0.08^ab
[4]; normal diet = 1.00, fucoxanthin content 0.2% (Test II/IV)
  Expression of mRNA, PPARα: 1.57 ± 0.36^b
